One molecule from BindingDB's records for patent US8802711 (Abbvie, 2014) can be followed below.

This experiment has as its target Transient receptor potential cation channel subfamily V member 1 (Homo sapiens, UniProt Q8NER1). Briefly: FLIPR Assay. On the procedure: All compounds were tested over a 12-point one-third-log concentration range. Compound stocks, 10 mM, were prepared in DMSO, and diluted serially across a 384-well plate using a Bravo BenchCel workstation (Agilent Technologies, Santa Clara, Calif.).

Chain of Transient receptor potential cation channel subfamily V member 1 (Q8NER1 whole entry): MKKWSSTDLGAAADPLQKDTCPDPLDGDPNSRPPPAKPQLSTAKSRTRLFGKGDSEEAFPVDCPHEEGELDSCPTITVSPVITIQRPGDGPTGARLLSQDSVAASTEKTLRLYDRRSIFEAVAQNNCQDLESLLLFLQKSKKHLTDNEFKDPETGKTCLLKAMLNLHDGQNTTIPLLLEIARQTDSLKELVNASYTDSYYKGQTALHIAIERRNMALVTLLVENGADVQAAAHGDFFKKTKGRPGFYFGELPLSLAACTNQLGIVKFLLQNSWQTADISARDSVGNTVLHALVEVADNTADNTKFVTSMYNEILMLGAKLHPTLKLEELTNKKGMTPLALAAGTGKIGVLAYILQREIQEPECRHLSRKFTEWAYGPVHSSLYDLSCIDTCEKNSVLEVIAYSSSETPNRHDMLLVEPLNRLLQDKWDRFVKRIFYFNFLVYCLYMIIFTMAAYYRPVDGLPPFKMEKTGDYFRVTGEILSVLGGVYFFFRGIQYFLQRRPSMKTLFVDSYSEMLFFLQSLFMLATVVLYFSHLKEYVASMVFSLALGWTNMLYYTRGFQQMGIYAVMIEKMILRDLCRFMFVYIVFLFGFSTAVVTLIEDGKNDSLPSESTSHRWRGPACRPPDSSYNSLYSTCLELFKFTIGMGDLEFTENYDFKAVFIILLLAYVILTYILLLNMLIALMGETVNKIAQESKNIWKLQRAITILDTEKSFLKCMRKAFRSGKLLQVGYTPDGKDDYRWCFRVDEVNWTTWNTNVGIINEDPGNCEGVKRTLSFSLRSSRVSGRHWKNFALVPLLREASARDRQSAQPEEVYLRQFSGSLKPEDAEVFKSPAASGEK

The term IC50 denotes the concentration that inhibits the measured activity by half. A low value points to greater potency. Take `Cc1cccnc1N1CC=C(C(=O)Nc2ccc(C(=O)NC(F)(F)F)cc2)CC1` [US8802711, L]: the IC50 came out at 100 nM.
